Assay results published in paper PMC9945865, “Anticancer evaluation of new organometallic ruthenium(II) flavone complexes” (RSC Medicinal Chemistry, 2022).

Tests used:
[1] = test system: HUVECs; test: Matrigel endothelial cell tube formation assay (VEGF-mediated); type: cell-based, human; details: 12 h; for tube formation inhibition activity: 1 μM
Method: In our recent study,[30] the 4′-chlorophenylflavone derivatives 1 and 2 have shown promising antiangiogenic activities in vitro. Herein, the effect of complexation with a ruthenium(II) metal ligand on the antiangiogenic activity of 1 and 2 was evaluated using the Matrigel tube formation assay that assesses many of the main steps involved in the process of angiogenesis. Inhibition of VEGF-mediated tube formation by the tested substrates was observed after 12 h of treatment on HUVECs at 1 μM and 10 μM concentrations. Luteolin is a natural flavone well known for its high antiangiogenic activity both in vitro and in vivo[34] and as such was used in this study as a reference standard. In accordance with reported data, luteolin inhibited the measured elements of tube formation by 30% compared to the positive control.[34,35] […] The ability of Ru(II) organometallic derivatives to target tumour metastasis has been widely reported both in vitro and in vivo.[3,6,9,36] Thus, based on the preliminary antiangiogenic trends observed for our target Ru(II) complexes (1Ru and 2Ru) and their parent flavones (1 and 2), we further investigated their antiproliferative and antimetastatic potential on the estrogen receptor positive breast cancer cell line (MCF-7) and the more aggressive triple negative cell line (MDA-MB-231).
HUVECs were cultured until confluency and then serum starved (0.1% serum) for 24 h. The tube formation assay followed the reported assay.[56] Briefly, 96 well plates were coated with 50 μL of Corning™ Matrigel™ GFR Membrane Matrix at 4 °C and incubated at 37 °C for 1–2 h to solidify. Serum starved HUVECs were seeded on the solidified Matrigel at 3 × 10^5 cells per mL and treated with medium containing VEGF (10 ng mL^−1) and either luteolin or one of the synthesised derivatives (at 1 μM or 10 μM). Plates were incubated for 12 h and photos covering the whole well area were taken using 4× magnification power of an inverted light microscope. Number of junctions, number and length of segments and master segments were quantified from the taken Images via the Angiogenesis Analyzer plugin[57] in ImageJ software.[58] […] Data was represented as a ratio to the positive control (VEGF enriched).

[2] = test system: c-myc i-motif DNA; test: I-motif DNA UV melting (thermal stability); type: binding, human; details: for Tm: c-myc i-motif with flavone at 1 : 1 ratio, 295 nm, free DNA 45 °C; for ΔTm: c-myc i-motif, 1 : 1 ratio, ΔTm = Tm (DNA-flavone) − Tm (DNA)
Text: (§1) The effect of this set of flavones on VEGF and c-myc was further evaluated via thermal stability measurements. Stabilizing/destabilizing the promotor i-motif structures is often reported to regulate expression of the corresponding genes, which for VEGF and c-myc could have detrimental effects on cancer growth and propagation.[48] As observed in Fig. 9, effects of the test flavones on the thermal stability of the VEGF and c-myc i-motif sequences were generally marginal and in agreement with λmax chromophoric shifts. […] Compound 1 destabilized VEGF i-motif in contrast to stabilizing the c-myc one. This mirrored the trend of a higher chromophoric shift observed for flavone 1 with VEGF i-motif sequence that also differed in pattern (hypochromic) from the shift witnessed with the c-myc sequence (hyperchromic). These findings could indicate higher selectivity of the 4-oxo derivative (1) towards VEGF i-motif based on an intercalative binding mode especially that hypochromic shifts are reported with DNA intercalation.[49,50] […] In this regard, the highest i-motif activity seen for the parent flavonoids was switched from VEGF to c-myc with compound 1 and vice versa with compound 2 upon Ru chelation. This emphasizes the key role of the interplay between the substitution at position 4 and metal complexation on the interaction with biological targets.
(§2) UV-visible absorbance measurements and DNA UV melting studies were performed on a Cary 300 C (Varian USA) UV-visible spectrophotometer. VEGF and c-myc i-motif DNA (5′-3′ sequences ([…]) and ([…]), respectively) were purchased from Sigma-Aldrich (Gillingham, UK) and used without further purification. Na cacodylate buffer (20 mM, pH 5.5) was used for both i-motifs. DNA concentrations were determined by measuring the absorbance at 260 nm after melting using the molar extinction coefficient supplied by the manufacturer. VEGF and c-myc i-motifs were prepared for experiments by diluting with buffer solution, annealed with or without the flavonoid at 95 °C for 5 min then gently cooled to room temperature. The stock solutions of the test compounds (20 mM) were prepared in 100% sterile DMSO. These stocks were then appropriately diluted with HPLC grade water and DMSO levels were maintained below 0.1% in the test concentrations.
(§3) UV-visible absorbance measurements and UV melting studies of either free i-motifs (VEGF or c-myc), free flavone (1, 1Ru, 2 or 2Ru) or both i-motif DNA and flavone (2 μM: 2 μM) were recorded using 1.0 cm matched quartz cuvettes. First spectra were recorded in the range of 200–500 nm to determine the relevant wavelength range were no peaks were observed above 320 nm. […] UV-visible absorbance was measured at 25 °C while melting curves were collected at a heating rate of 1 °C min^−1 from 20 to 90 °C. Tm was calculated by non-linear fitting of the sigmoidal curve obtained at 295 nm.

[3] = test system: VEGF i-motif DNA; test: I-motif DNA UV melting (thermal stability); type: binding, human; details: for Tm: VEGF i-motif with flavone at 1 : 1 ratio, 295 nm, free DNA 46 °C; for ΔTm: ΔTm = Tm (DNA-flavone) − Tm (DNA)
Text: as §1, §2, §3

[4] = test system: c-myc i-motif DNA; test: I-motif DNA binding, UV-visible absorbance; set-up: species or system human; details: DNA : flavonoid 2 μM : 2 μM, pH 5.5, 25 °C
Text: (§4) I-motifs are four stranded antiparallel cytosine rich DNA sequences capable of forming at telomere and promotor regions of genomic DNA.[41,42] […] Due to the presence of potential i-motif forming sequences in 69% of promoter regions in human oncogenes, they are postulated to play a key role in oncogene expression regulation.[44] VEGF and c-myc i-motif sequences are prevalent in oncogene promotor regions in many cancers including breast cancer and as such their ligands have potential anticancer roles.[45] The natural flavonol, fisetin, is reported to specifically bind to VEGF i-motif DNA and regulate its function by stabilizing its hairpin structure.[31] […] In continuation of our investigation of the effects of Ru metal complexation on the different biological activities of flavonoids, interactions with VEGF and c-myc i-motif DNA were studied using UV-vis spectroscopic techniques. […] However, 2Ru's addition led to a 1 nm hypsochromic shift of VEGF i-motif absorbance maximum from 272 to 271 nm. On the other hand, addition of the 4-oxo flavone (1) and its Ru complex (1Ru) led to minor changes in λmax of both sequences that was hypochromic (5% and 3%) with VEGF and hyperchromic (2% and 5%) in case of c-myc (Fig. 8).
as §2, §3

[5] = test system: VEGF i-motif DNA; test: I-motif DNA binding, UV-visible absorbance; set-up: species or system human
Text: as §4, §2, §3

[6] = DNA : flavonoid 2 μM : 2 μM, pH 5.5, 25 °C

Row | Structure (SMILES) | tube formation inhibition activity [1] | overall tube formation inhibition ([1]; 10 μM, insignificant (p > 0.05)) [%] | Tm [2] [°C] | ΔTm [2] [°C] | Tm [3] [°C] | ΔTm ([3]; VEGF i-motif, 1 : 1 ratio) [°C] | hyperchromic shift (increase) at absorbance maximum λmax [4] [%] | hypochromic change at λmax [5, 6] [%] | reduction in the number of junctions ([1]; 10 μM, p < 0.01) [%] | reduction in number and length of master segments ([1]; 10 μM, p < 0.05) [%] | decrease in the i-motif's transition temperature (Tm) ([3]; VEGF i-motif, 1 : 1 ratio) [°C] | hyperchromic shift (increase) at absorbance maximum λmax [5, 6] [%] | hypsochromic shift of absorbance maximum ([5]; from 272 to 271 nm, 1 : 1 ratio) [nm]
1 | Cc1ccc(C(C)C)cc1.O=c1cc(-c2ccc(Cl)cc2)oc2cc(O)cc([O-])c12.[Cl-].[Ru+2] [1Ru, chlorido [(5-oxo-κO)-7-hydroxy-2-(4′-chlorophenyl)-4H-chromen-4-onato-κO] (η^6-p-cymene)ruthenium(II)] | total loss of their parents' tube formation inhibition activity | 22 | 48 | 3 | 47 | 1 | 5 | 3 | – | – | – | – | –
2 | Cc1ccc(C(C)C)cc1.[Cl-].[O-]c1cc(O)cc2oc(-c3ccc(Cl)cc3)cc(=S)c12.[Ru+2] [2Ru, chlorido [(5-oxo-κO)-7-hydroxy-2-(4′-chlorophenyl)-4H-chromen-4-thionato-κO] (η^6-p-cymene)ruthenium(II)] | total loss of their parents' tube formation inhibition activity | – | 44 | −1 | 42 | −4 | 8 | – | 40 | 35 | 4 | 2 | 1
